From patent US7495027B2, “3-aryl-4-hydroxyfuranone compounds and the human and animal health use thereof” (Wyeth, priority 2003, dated 2009)
Converted amounts (≈) assume the structure as drawn.

Target: T1, S. aureus UDP-N-acetylglucosamine enolpyruvoyl transferase, MurA (Staphylococcus aureus, UniProt P84058)
T1 sequence (P84058 1-421): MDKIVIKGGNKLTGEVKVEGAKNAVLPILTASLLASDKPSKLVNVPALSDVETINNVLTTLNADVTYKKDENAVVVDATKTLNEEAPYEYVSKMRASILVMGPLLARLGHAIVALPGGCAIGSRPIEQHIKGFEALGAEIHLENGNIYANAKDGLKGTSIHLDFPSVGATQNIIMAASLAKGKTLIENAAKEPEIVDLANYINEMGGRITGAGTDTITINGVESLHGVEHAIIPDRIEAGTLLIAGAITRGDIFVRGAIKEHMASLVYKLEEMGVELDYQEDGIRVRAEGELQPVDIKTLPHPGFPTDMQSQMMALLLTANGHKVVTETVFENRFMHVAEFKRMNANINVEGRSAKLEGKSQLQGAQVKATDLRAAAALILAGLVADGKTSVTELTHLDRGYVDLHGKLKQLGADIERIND
Test: Inhibitory activity against MurA (S. aureus)
Format: biochemical
Conditions: (S) S. aureus enzyme
Experimental: Evaluation of the Inhibitory Activity of Test Compounds Against Enzymes which Catalyze Bacterial Cell Wall Biosynthesis
S. aureus and E. coli UDP-N-acetylglucosamine enolpyruvoyl transferase, MurA
Preparation of Enzyme Solution:
The enzyme solution is prepared by admixing the following: 50 mM Tris/HCl pH 8.0, […] 1 M Tris, 5 mM DTT, […] 1 M DTT, 20% Glycerol 4 ml 50% Glycerol, add water to 10 ml.
Preparation of Stop Solution:
The stop solution is prepared by mixing the following: 4.2% ammonium molybdate in 4N HCl, 8.4 g/200 ml 4N HCl, 0.045% malachite green, 90 mg/200 ml water, then stir 1 part ammonium molybdate with 2 parts malachite green for 30 min.
A procedure similar to that described by C. T. Walsh in Biochemistry 33, 10646-10651, is used to evaluate the inhibitory activity of test compounds against MurA, the enzyme which catalyzes the first step of bacterial cell wall biosynthesis. Experiments are performed by adding a solution of test compound (in a mixture of dimethylsulfoxide and water) and an enzyme solution to a well. After a pre-incubation period of 10 mintues at 37° C., Tris/BME buffer and assay buffer are added. A start point optical density (OD0) reading is taken at 340 nm immediately following the addition of assay buffer. After incubation for 1 hr at 37° C., the stop solution is added and the color is allowed to develop for 30 minutes. An end point OD1 reading at […] is then taken. […]

Compound | MurA IC50 | IC50 [µM]
O=C1OC(=Cc2cccc3ccccc23)C(O)=C1c1ccc(C=NO)cc1 (mixture of isomers) [Example 73] | >25 (S) μg/mL | 
COc1cc(/C=C2\OC(=O)C(c3cccc(Cl)c3)=C2O)ccc1-c1ccccc1Cl [Example 18] |  | 13.7
COc1ccccc1-c1ccc(/C=C2\OC(=O)C(c3cc(Cl)cc(Cl)c3)=C2O)cc1OC [Example 19] |  | 36.2
COc1ccccc1-c1ccc(/C=C2\OC(=O)C(c3ccc(Cl)c(Cl)c3)=C2O)cc1OC [Example 20] |  | > 53.3
COc1cc(/C=C2\OC(=O)C(c3cc(Cl)cc(Cl)c3)=C2O)ccc1-c1ccccc1Cl [Example 21] |  | 10.6
COc1cc(/C=C2\OC(=O)C(c3cccc(Cl)c3)=C2O)ccc1-c1ccccc1C [Example 22] |  | 21.5
COc1ccccc1-c1ccc(/C=C2\OC(=O)C(c3cccc(Cl)c3)=C2O)cc1C [Example 23] |  | 33.4
COc1ccccc1-c1ccc(/C=C2\OC(=O)C(c3cc(Cl)cc(Cl)c3)=C2O)cc1C [Example 24] |  | 15.4
COc1cc(/C=C2\OC(=O)C(c3cc(Cl)cc(Cl)c3)=C2O)ccc1-c1ccccc1C [Example 25] |  | 11

Target: T2, S. aureus Uridine-diphosphate-N-acetylmuramoyl-L-alanine: D-glutamate liease, MurD (Staphylococcus aureus, UniProt Q2FZ92)
T2 sequence (Q2FZ92 1-449): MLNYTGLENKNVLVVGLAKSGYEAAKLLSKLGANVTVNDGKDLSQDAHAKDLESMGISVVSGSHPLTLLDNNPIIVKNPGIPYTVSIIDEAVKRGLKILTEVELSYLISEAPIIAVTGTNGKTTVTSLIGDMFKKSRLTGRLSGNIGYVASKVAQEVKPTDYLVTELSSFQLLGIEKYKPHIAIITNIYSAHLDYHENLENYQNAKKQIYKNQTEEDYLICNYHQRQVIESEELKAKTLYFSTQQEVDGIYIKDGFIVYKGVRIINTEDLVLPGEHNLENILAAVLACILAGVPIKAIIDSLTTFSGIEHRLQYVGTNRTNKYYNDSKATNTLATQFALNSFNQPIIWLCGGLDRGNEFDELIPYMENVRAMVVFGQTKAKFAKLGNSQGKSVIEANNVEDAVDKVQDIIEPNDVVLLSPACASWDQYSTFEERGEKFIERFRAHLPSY
Test: biochemical
Conditions: (S) S. aureus enzyme
Outline: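 Test solutions, 10 mg/mL stocks in DMSO, were brought to 100 μg/mL with 50 mM Tris/HCl (pH 8.5). Their inhibition of MurD, the enzyme of the fourth cell wall biosynthesis step, was measured.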

Compound | MurD IC50 | IC50 [µM]
O=C1OC(=Cc2cccc3ccccc23)C(O)=C1c1ccc(C=NO)cc1 (mixture of isomers) [Example 73] | >25 (E); >25 (S) μg/mL | 
COc1cc(/C=C2\OC(=O)C(c3cccc(Cl)c3)=C2O)ccc1-c1ccccc1Cl [Example 18] |  | 41
COc1ccccc1-c1ccc(/C=C2\OC(=O)C(c3cc(Cl)cc(Cl)c3)=C2O)cc1OC [Example 19] |  | 36.2
COc1ccccc1-c1ccc(/C=C2\OC(=O)C(c3ccc(Cl)c(Cl)c3)=C2O)cc1OC [Example 20] |  | 40.5
COc1cc(/C=C2\OC(=O)C(c3cc(Cl)cc(Cl)c3)=C2O)ccc1-c1ccccc1Cl [Example 21] |  | 16.9
COc1cc(/C=C2\OC(=O)C(c3cccc(Cl)c3)=C2O)ccc1-c1ccccc1C [Example 22] |  | 40.6
COc1ccccc1-c1ccc(/C=C2\OC(=O)C(c3cccc(Cl)c3)=C2O)cc1C [Example 23] |  | 23.9
COc1ccccc1-c1ccc(/C=C2\OC(=O)C(c3cc(Cl)cc(Cl)c3)=C2O)cc1C [Example 24] |  | 24.3
COc1cc(/C=C2\OC(=O)C(c3cc(Cl)cc(Cl)c3)=C2O)ccc1-c1ccccc1C [Example 25] |  | 30.9

Test system: staphylococci
Test: Minimum inhibitory concentration, microdilution broth method, staphylococci
Format: cell-based
Conditions: S. aureus GC 1131; Mueller-Hinton broth, 18-22 hours at 35° C.
Outline: (§1)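 Broth microdilution per NCCLS M7-A5 (2000). Staphylococci and enterococci grown in Mueller-Hinton broth; streptococci in Mueller-Hinton broth with 5% horse blood (LHB). Panel includes recent clinical isolates resistant to methicillin, penicillin and/or vancomycin.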

Compound | MIC S. aureus GC 1131 [µg/mL]
O=C1OC(=Cc2cccc3ccccc23)C(O)=C1c1ccc(C=NO)cc1 (mixture of isomers) [Example 73] | >128

Same assay, conditions: S. aureus GC 4543; Mueller-Hinton broth, 18-22 hours at 35° C.

Compound | MIC S. aureus GC 4543 [µg/mL]
O=C1OC(=Cc2cccc3ccccc23)C(O)=C1c1ccc(C=NO)cc1 (mixture of isomers) [Example 73] | >128

Same assay, conditions: Staphylococcus aureus, S. aureus GC 1131; Mueller-Hinton broth, 18-22 hours at 35° C.; read-out: MIC S. aureus GC 1131

Compound | MIC [µg/mL]
COc1cc(/C=C2\OC(=O)C(c3cccc(Cl)c3)=C2O)ccc1-c1ccccc1Cl [Example 18] | 4 (≈ 9.11 µM)
COc1ccccc1-c1ccc(/C=C2\OC(=O)C(c3cc(Cl)cc(Cl)c3)=C2O)cc1OC [Example 19] | 2 (≈ 4.26 µM)
COc1ccccc1-c1ccc(/C=C2\OC(=O)C(c3ccc(Cl)c(Cl)c3)=C2O)cc1OC [Example 20] | 4 (≈ 8.52 µM)
COc1cc(/C=C2\OC(=O)C(c3cc(Cl)cc(Cl)c3)=C2O)ccc1-c1ccccc1Cl [Example 21] | 1 (≈ 2.11 µM)
COc1cc(/C=C2\OC(=O)C(c3cccc(Cl)c3)=C2O)ccc1-c1ccccc1C [Example 22] | 4 (≈ 9.55 µM)
COc1ccccc1-c1ccc(/C=C2\OC(=O)C(c3cccc(Cl)c3)=C2O)cc1C [Example 23] | 8 (≈ 19.1 µM)
COc1ccccc1-c1ccc(/C=C2\OC(=O)C(c3cc(Cl)cc(Cl)c3)=C2O)cc1C [Example 24] | 2 (≈ 4.41 µM)
COc1cc(/C=C2\OC(=O)C(c3cc(Cl)cc(Cl)c3)=C2O)ccc1-c1ccccc1C [Example 25] | 1 (≈ 2.21 µM)

Same assay, conditions: Staphylococcus aureus, S. aureus GC 4543; Mueller-Hinton broth, 18-22 hours at 35° C.; read-out: MIC S. aureus GC 4543

Compound | MIC [µg/mL]
COc1cc(/C=C2\OC(=O)C(c3cccc(Cl)c3)=C2O)ccc1-c1ccccc1Cl [Example 18] | 4 (≈ 9.11 µM)
COc1ccccc1-c1ccc(/C=C2\OC(=O)C(c3cc(Cl)cc(Cl)c3)=C2O)cc1OC [Example 19] | 2 (≈ 4.26 µM)
COc1ccccc1-c1ccc(/C=C2\OC(=O)C(c3ccc(Cl)c(Cl)c3)=C2O)cc1OC [Example 20] | 4 (≈ 8.52 µM)
COc1cc(/C=C2\OC(=O)C(c3cc(Cl)cc(Cl)c3)=C2O)ccc1-c1ccccc1Cl [Example 21] | 0.5 (≈ 1.06 µM)
COc1cc(/C=C2\OC(=O)C(c3cccc(Cl)c3)=C2O)ccc1-c1ccccc1C [Example 22] | 4 (≈ 9.55 µM)
COc1ccccc1-c1ccc(/C=C2\OC(=O)C(c3cccc(Cl)c3)=C2O)cc1C [Example 23] | 4 (≈ 9.55 µM)
COc1ccccc1-c1ccc(/C=C2\OC(=O)C(c3cc(Cl)cc(Cl)c3)=C2O)cc1C [Example 24] | 1 (≈ 2.21 µM)
COc1cc(/C=C2\OC(=O)C(c3cc(Cl)cc(Cl)c3)=C2O)ccc1-c1ccccc1C [Example 25] | 0.5 (≈ 1.1 µM)

Test system: enterococci
Test: Minimum inhibitory concentration, microdilution broth method, enterococci
Format: cell-based
Conditions: E. faecalis GC 2242; Mueller-Hinton broth, 18-22 hours at 35° C.
Outline: as §1

Compound | MIC E. faecalis GC 2242 [µg/mL]
O=C1OC(=Cc2cccc3ccccc23)C(O)=C1c1ccc(C=NO)cc1 (mixture of isomers) [Example 73] | >128

Same assay, conditions: E. faecalis GC 4555; Mueller-Hinton broth, 18-22 hours at 35° C.

Compound | MIC E. faecalis GC 4555 [µg/mL]
O=C1OC(=Cc2cccc3ccccc23)C(O)=C1c1ccc(C=NO)cc1 (mixture of isomers) [Example 73] | >128

Same assay, conditions: Enterococcus faecalis, E. faecalis GC 2242; Mueller-Hinton broth, 18-22 hours at 35° C.; read-out: MIC E. faecalis GC 2242

Compound | MIC [µg/mL]
COc1cc(/C=C2\OC(=O)C(c3cccc(Cl)c3)=C2O)ccc1-c1ccccc1Cl [Example 18] | 8 (≈ 18.2 µM)
COc1ccccc1-c1ccc(/C=C2\OC(=O)C(c3cc(Cl)cc(Cl)c3)=C2O)cc1OC [Example 19] | 8 (≈ 17 µM)
COc1ccccc1-c1ccc(/C=C2\OC(=O)C(c3ccc(Cl)c(Cl)c3)=C2O)cc1OC [Example 20] | 16 (≈ 34.1 µM)
COc1cc(/C=C2\OC(=O)C(c3cc(Cl)cc(Cl)c3)=C2O)ccc1-c1ccccc1Cl [Example 21] | 2 (≈ 4.22 µM)
COc1cc(/C=C2\OC(=O)C(c3cccc(Cl)c3)=C2O)ccc1-c1ccccc1C [Example 22] | 8 (≈ 19.1 µM)
COc1ccccc1-c1ccc(/C=C2\OC(=O)C(c3cccc(Cl)c3)=C2O)cc1C [Example 23] | 8 (≈ 19.1 µM)
COc1ccccc1-c1ccc(/C=C2\OC(=O)C(c3cc(Cl)cc(Cl)c3)=C2O)cc1C [Example 24] | 4 (≈ 8.82 µM)
COc1cc(/C=C2\OC(=O)C(c3cc(Cl)cc(Cl)c3)=C2O)ccc1-c1ccccc1C [Example 25] | 2 (≈ 4.41 µM)

Same assay, conditions: Enterococcus faecalis, E. faecalis GC 4555; Mueller-Hinton broth, 18-22 hours at 35° C.; read-out: MIC E. faecalis GC 4555

Compound | MIC [µg/mL]
COc1cc(/C=C2\OC(=O)C(c3cccc(Cl)c3)=C2O)ccc1-c1ccccc1Cl [Example 18] | 16 (≈ 36.4 µM)
COc1ccccc1-c1ccc(/C=C2\OC(=O)C(c3cc(Cl)cc(Cl)c3)=C2O)cc1OC [Example 19] | 8 (≈ 17 µM)
COc1ccccc1-c1ccc(/C=C2\OC(=O)C(c3ccc(Cl)c(Cl)c3)=C2O)cc1OC [Example 20] | 16 (≈ 34.1 µM)
COc1cc(/C=C2\OC(=O)C(c3cc(Cl)cc(Cl)c3)=C2O)ccc1-c1ccccc1Cl [Example 21] | 4 (≈ 8.44 µM)
COc1cc(/C=C2\OC(=O)C(c3cccc(Cl)c3)=C2O)ccc1-c1ccccc1C [Example 22] | 16 (≈ 38.2 µM)
COc1ccccc1-c1ccc(/C=C2\OC(=O)C(c3cccc(Cl)c3)=C2O)cc1C [Example 23] | 8 (≈ 19.1 µM)
COc1ccccc1-c1ccc(/C=C2\OC(=O)C(c3cc(Cl)cc(Cl)c3)=C2O)cc1C [Example 24] | 4 (≈ 8.82 µM)
COc1cc(/C=C2\OC(=O)C(c3cc(Cl)cc(Cl)c3)=C2O)ccc1-c1ccccc1C [Example 25] | 4 (≈ 8.82 µM)
